Results published in US10034886B2, “GLP-1 receptor modulators” (Celgene International II SÀRL, priority 2014, dated 2018).

Each compound was assayed against T1, GLP-1R (Homo sapiens, UniProt P43220) (assay: EC20 GLP-1(9-36) PAM cAMP assay: dose response of compound in the presence of fixed concentration of GLP-1(9-36)). Conditions: GLP-1R CRE-bla CHO-K1 cells, compound dose response with fixed concentration of GLP-1(9-36), read-out: EC20 GLP-1(9-36) PAM EC50.
T1 construct: host or cells: GLP-1R CRE-bla CHO-K1 cells
T1 sequence (P43220 24-463): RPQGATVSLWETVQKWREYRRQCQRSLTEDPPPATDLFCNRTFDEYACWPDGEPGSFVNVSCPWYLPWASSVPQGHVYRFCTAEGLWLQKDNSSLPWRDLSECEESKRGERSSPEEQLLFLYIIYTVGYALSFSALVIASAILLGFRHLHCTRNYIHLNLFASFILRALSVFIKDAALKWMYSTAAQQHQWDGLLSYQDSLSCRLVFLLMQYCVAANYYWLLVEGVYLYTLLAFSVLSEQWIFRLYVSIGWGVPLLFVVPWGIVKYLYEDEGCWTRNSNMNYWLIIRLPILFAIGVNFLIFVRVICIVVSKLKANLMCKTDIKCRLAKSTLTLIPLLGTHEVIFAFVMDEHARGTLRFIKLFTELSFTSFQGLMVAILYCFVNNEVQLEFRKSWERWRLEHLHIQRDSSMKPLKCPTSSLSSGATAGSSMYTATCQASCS
T1 sequence (P01275 100-127 partner limits assumed): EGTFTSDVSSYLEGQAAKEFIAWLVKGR
Format: cell-based
Procedure, shortened: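 Positive allosteric modulation read as cAMP accumulation: compound titrations (12 points) combined with an EC20 level of GLP-1(9-36) on CHO-K1 GLP-1R CRE-bla cells, IBMX present, 30 min, 37 °C, pH 7.4 buffer. Luminescence converted to cAMP via standards; non-linear fit gave EC50 and Emax.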

EC50 | Compound
< 0.8 µM | CCCCOc1ccc(-c2ccc(-c3cnc(-c4ccc(C[C@H](NC(=O)c5ccc(C(C)(C)C)s5)C(=O)N5CC(C(=O)O)C5)cc4)nc3)c(F)c2)cc1 [Compound 1332]
< 0.8 µM | CCC[C@H]1CC[C@H](C2CCN(c3cnc(-c4ccc(C[C@H](NC(=O)c5ccc(C(C)(C)C)s5)C(=O)N[C@@H](C(=O)O)C5CC5)cc4)nc3)CC2)CC1 [Compound 1444]
< 0.8 µM | CCC[C@H]1CC[C@H](C2CCN(c3cnc(-c4ccc(C[C@H](NC(=O)c5ccc(CC)s5)C(=O)N5CC(C(=O)O)C5)cc4)nc3)CC2)CC1 [Compound 1533]
< 0.8 µM | CCc1ccc(C2CCN(c3cnc(-c4ccc(C[C@H](NC(=O)c5ccc(C(C)(C)C)s5)C(=O)N5CC(C(=O)O)C5)cc4)nc3)CC2)cc1 [Compound 1474]

Same assay, conditions: dose response of compound in presence of fixed concentration of GLP-1(9-36), GLP-1R CRE-bla CHO-K1 cells, read-out: EC20 GLP-1(9-36) PAM EC50

Compound | EC50
CC(=O)c1ccccc1-c1ccc(-c2cnc(-c3ccc(C[C@H](NC(=O)c4ccc(C(C)(C)C)s4)C(=O)N4CC(C(=O)O)C4)cc3)nc2)c(F)c1 [Compound 1197] | 0.8 to 2.5 µM
CCCCCCCOc1ccc(-c2cnc(-c3ccc(C[C@H](NC(=O)c4ccc(C(C)(C)C)cc4)C(=O)NCCC(=O)O)cc3)nc2)cc1C [Compound 698] | < 0.8 µM
CC(C)COc1ncc(-c2cnc(-c3ccc(C[C@H](NC(=O)c4ccc(C(C)(C)C)s4)C(=O)N[C@H](C)C(=O)O)cc3)nc2)cc1Cl [Compound 1038] | 2.5 to 5 µM
CCCCCCCc1ccc(-c2cnc(-c3ccc(C[C@H](NC(=O)c4ccc(C(C)(C)C)s4)C(=O)N[C@H](C)C(=O)O)cc3)nc2)cc1 [Compound 737] | < 0.8 µM
Cc1ccc(-c2ccc(-c3cnc(-c4ccc(C[C@H](NC(=O)c5ccc(C(C)(C)C)s5)C(=O)N[C@H](C)C(=O)O)cc4)nc3)cc2)c(F)c1 [Compound 1148] | < 0.8 µM
CC1CCC(c2ccc(-c3cnc(-c4ccc(C[C@H](NC(=O)c5ccc(C(C)(C)C)s5)C(=O)N5CC(C(=O)O)C5)cc4)nc3)cc2)CC1 (stereo partly drawn) [Compound 1187] | < 0.8 µM
CCCCCCCOc1ccc(-c2cnc(-c3ccc(C[C@H](NC(=O)c4ccc(C(C)(C)C)s4)C(=O)NC(C(=O)O)c4ccc(C(F)(F)F)cc4)cc3)nc2)cc1 (stereo partly drawn) [Compound 618] | 5 to 10 µM
CCCCCCCOc1ccc(-c2cnc(-c3ccc(C[C@H](NC(=O)c4ccc(C(C)(C)C)cc4)C(=O)N[C@H](CCN)C(=O)O)cc3)nc2)cc1 [Compound 476] | 2.5 to 5 µM

Further lines, results first:

EC50 | Compound
0.8 to 2.5 µM | CCCCCCCOc1ccc(-c2cnc(-c3ccc(C[C@H](NC(=O)c4ccc(C(C)(C)C)s4)C(=O)N[C@@H](C(=O)O)[C@H](C)c4ccccc4)cc3)nc2)cc1 [Compound 910]
< 0.8 µM | CCCCCCCOc1ccc(-c2cnc(-c3ccc(C[C@H](NC(=O)c4ccc(C(C)(C)C)s4)C(=O)N[C@@H](C(=O)O)C4CC4)cc3)nc2)cc1 [Compound 404]
0.8 to 2.5 µM | CCCCCCCOc1ccc(-c2cnc(-c3ccc(C[C@H](NC(=O)c4ccc(C(C)C)cc4)C(=O)N4CCC[C@H]4C(=O)O)cc3)nc2)cc1 [Compound 1074]
0.8 to 2.5 µM | CCCCCCCOc1ccc(-c2cnc(-c3ccc(C[C@H](NC(=O)c4ccc(C(C)(C)CC)cc4)C(=O)N4CCC[C@H]4C(=O)O)cc3)nc2)cc1 [Compound 1082]
2.5 to 5 µM | CCCCCCCOc1ccc(-c2cnc(-c3ccc(C[C@H](NC(=O)c4ccc(CC(C)C)s4)C(=O)N4CC[C@H](C(=O)O)C4)cc3)nc2)cc1 [Compound 847]
0.8 to 2.5 µM | CCCCCCCOc1ccc(-c2cnc(-c3ccc(C[C@H](NC(=O)c4ccc(C(C)(C)C)s4)C(=O)NC(C(=O)O)C(O)c4cccnn4)cc3)nc2)cc1 (stereo partly drawn) [Compound 915]
0.8 to 2.5 µM | CCCCCCCOc1ccc(-c2cnc(-c3ccc(C[C@H](NC(=O)c4ccc(C5CC5)s4)C(=O)N[C@H](C)C(=O)O)cc3)nc2)cc1 [Compound 842]
< 0.8 µM | CCCCCCCOc1ccc(-c2cnc(-c3ccc(C[C@H](NC(=O)c4ccc(C(C)(C)C)s4)C(=O)N4CCC4C(=O)O)cc3)nc2)cc1 (stereo partly drawn) [Compound 599]
0.8 to 2.5 µM | CCCCCCCOc1ccc(-c2cnc(-c3ccc(C[C@H](NC(=O)c4ccc(C(C)(C)C)s4)C(=O)NC(Cc4nccs4)C(=O)O)cc3)nc2)cc1 (stereo partly drawn) [Compound 592]
